Measured values taken from US8835440B2, “Cyclic pyrimidin-4-carboxamides as CCR2 receptor antagonists for treatment of inflammation, asthma and COPD” (Boehringer Ingelheim International GmbH, priority 2008, dated 2014).

Target: T1, CCR2 (Homo sapiens, UniProt P41597)
T1 construct: Membranes were prepared from THP-1 cells; endogenous in cells; host or cells: THP-1 cells (membrane preparation)
T1 sequence (P41597 1-360 isoform P41597-2): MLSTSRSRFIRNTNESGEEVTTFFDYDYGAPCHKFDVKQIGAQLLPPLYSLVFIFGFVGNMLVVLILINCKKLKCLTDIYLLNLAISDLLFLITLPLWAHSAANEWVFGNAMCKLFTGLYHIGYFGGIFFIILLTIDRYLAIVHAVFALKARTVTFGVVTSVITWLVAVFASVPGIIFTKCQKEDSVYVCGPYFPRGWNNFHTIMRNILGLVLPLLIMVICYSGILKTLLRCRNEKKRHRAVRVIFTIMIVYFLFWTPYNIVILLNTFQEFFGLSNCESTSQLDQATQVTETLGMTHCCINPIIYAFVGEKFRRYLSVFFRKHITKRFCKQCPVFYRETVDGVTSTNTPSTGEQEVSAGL
Test: CCR2 receptor membrane binding assay ([125I]MCP-1, THP-1 cell membranes, SPA beads)
Conditions: for Ki: dissociation constant hKi, [125I]MCP-1 binding to THP-1 membranes; for remaining activity at 10 µM: @ 10 μM test compound, THP-1 membranes, read-out: CCR2 % ctrl @ 10 μM
How it was run: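 Human THP-1 monocytic cell membranes, pre-coupled to WGA-PVT SPA beads, were incubated with compound and [125I]MCP-1 (ca. 25000 cpm) in 25 mM HEPES pH 7.2, 5 mM MgCl2, 0.5 mM CaCl2, 0.2% BSA, at 1% DMSO final. Bound radioactivity was counted after 8 h, and Ki was obtained by iterative mass-action fitting.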

Row | SMILES | Ki [nM] | remaining activity at 10 µM [%]
1 | Cc1c(NCC2CCCC(C(C)C)C2)ncnc1C(=O)N1CCC(N2CCC(N(C)S(C)(=O)=O)CC2)CC1 (centres unmarked) [Example 159zb] | 15 | 
2 | CCN(C1CCN(C2CCN(C(=O)c3ncnc(NCc4ccc(Cl)c(Cl)c4)c3C)CC2)CC1)S(C)(=O)=O [Example 160] | 43 | 3
3 | Cc1c(NCc2ccc(C(C)(C)C)cc2)ncnc1C(=O)N1CCCC(N2CCC(N(C)S(C)(=O)=O)CC2)CC1 (centres unmarked) [Example 161] | 2000 | 30
4 | Cc1c(NCc2ccc(C(C)(C)C)cc2)ncnc1C(=O)N1CCCC(N2CCOCC2)CC1 (centres unmarked) [Example 162] | 3800 | 43
5 | Cc1c(NCc2ccc(C(C)(C)C)cc2)ncnc1C(=O)N1CCCC(N2CCCC2)CC1 (centres unmarked) [Example 163] | 1560 | 32
6 | Cc1c(NCCc2ccc(Cl)c(Cl)c2)ncnc1C(=O)N1CCC(N2CCC(F)(F)CC2)CC1 [Example 164] | 353 | 15
7 | Cc1c(NCCc2ccc(Cl)c(Cl)c2)ncnc1C(=O)N1CCC(N2CC[C@@H](O)C2)CC1 [Example 165] | 222 | 15
8 | Cc1c(NCCc2ccc(Cl)c(Cl)c2)ncnc1C(=O)N1CCC(N2CC[C@H](O)C2)CC1 [Example 166] | 227 | 16
9 | Cc1c(NCCc2ccc(Cl)c(Cl)c2)ncnc1C(=O)N1CCC(N2CCC(F)CC2)CC1 [Example 167] | 246 | 16
10 | Cc1c(NCCc2ccc(Cl)c(Cl)c2)ncnc1C(=O)N1CCC(N2CCC(NS(C)(=O)=O)CC2)CC1 [Example 168] | 51 | 9
11 | Cc1c(NCCc2ccc(Cl)c(Cl)c2)ncnc1C(=O)N1CCC(N2CCC[C@H](NS(C)(=O)=O)C2)CC1 [Example 169] | 2290 | 54
12 | Cc1c(NCCc2ccc(Cl)c(Cl)c2)ncnc1C(=O)N1CCC(N2CCC(NC(=O)C(C)C)CC2)CC1 [Example 170] | 705 | 31
13 | CC(=O)NC1CCN(C2CCN(C(=O)c3ncnc(NCCc4ccc(Cl)c(Cl)c4)c3C)CC2)CC1 [Example 171] | 356 | 16
14 | Cc1c(NCCc2ccc(Cl)c(Cl)c2)ncnc1C(=O)N1CCC(N2CCC(C(N)=O)CC2)CC1 [Example 172] | 736 | 28
15 | CNC(=O)C1CCN(C2CCN(C(=O)c3ncnc(NCCc4ccc(Cl)c(Cl)c4)c3C)CC2)CC1 [Example 173] | 89 | 6
16 | Cc1c(NCCc2ccc(Cl)c(Cl)c2)ncnc1C(=O)N1CCC(N2CCC[C@@H](NS(C)(=O)=O)C2)CC1 [Example 174] | 2720 | 53
17 | Cc1c(NCCc2ccc(Cl)c(Cl)c2)ncnc1C(=O)N1CCC(N2CCC[C@H](C(N)=O)C2)CC1 [Example 175] | 434 | 14
18 | CNC(=O)[C@H]1CCCN(C2CCN(C(=O)c3ncnc(NCCc4ccc(Cl)c(Cl)c4)c3C)CC2)C1 [Example 176] | 648 | 31
19 | Cc1c(NCCc2ccc(Cl)c(Cl)c2)ncnc1C(=O)N1CCC(N2CCC[C@H](C(=O)N(C)C)C2)CC1 [Example 177] | 1250 | 43
20 | CCN(C1CCN(C2CCN(C(=O)c3ncnc(NCCc4ccc(Cl)c(Cl)c4)c3C)CC2)CC1)S(C)(=O)=O [Example 178] | 27 | 0
21 | Cc1c(NCCc2ccc(Cl)c(Cl)c2)ncnc1C(=O)N1CCC(N2CCC[C@H](C(=O)O)C2)CC1 [Example 179] | 1640 | 42

Row | SMILES | Ki [nM] | remaining activity at 10 µM [%]
22 | Cc1c(NCc2ccc(Cl)c(Cl)c2)ncnc1C(=O)N1CCC(N(C)CC2(C)COC2)CC1 [Example 180] | 4810 | 60
23 | COCCN(C)C1CCN(C(=O)c2ncnc(NCc3ccc(Cl)c(Cl)c3)c2C)CC1 [Example 181] | 3610 | 58
24 | Cc1c(NCc2ccc(Cl)c(Cl)c2)ncnc1C(=O)N1CCC(N(C)CC#N)CC1 [Example 182] | 2990 | 53
25 | Cc1c(NCc2ccc(Cl)c(Cl)c2)ncnc1C(=O)N1CCC(N2Cc3ccccc3C2)CC1 [Example 183] | 426 | 45
26 | Cc1c(NCc2ccc(Cl)c(Cl)c2)ncnc1C(=O)N1CCC(N2CCC(C(F)(F)F)CC2)CC1 [Example 184] | 908 | 30
27 | CO[C@H]1CN(C2CCN(C(=O)c3ncnc(NCc4ccc(Cl)c(Cl)c4)c3C)CC2)CC[C@H]1NS(C)(=O)=O [Example 185] | 4210 | 53
28 | CNC(=O)C1CCN(C2CCN(C(=O)c3ncnc(NCc4ccc(Cl)c(Cl)c4)c3C)CC2)CC1 [Example 186] | 78 | 8
29 | Cc1c(NCc2ccc(Cl)c(Cl)c2)ncnc1C(=O)N1CCC(N2CCC(NC(N)=O)CC2)CC1 [Example 187] | 256 | 15
30 | Cc1c(NCc2ccc(Cl)c(Cl)c2)ncnc1C(=O)N1CCC(N2CCC3(CC2)CCN(S(C)(=O)=O)C3)CC1 [Example 188] | 3930 | 53
31 | Cc1c(NCc2ccc(Cl)c(Cl)c2)ncnc1C(=O)N1CCC(N2CCC(N3CCCS3(=O)=O)CC2)CC1 [Example 189] | 170 | 13
32 | Cc1c(NCc2ccc(Cl)c(Cl)c2)ncnc1C(=O)N1CCC(N2CCC3(CCNC3=O)CC2)CC1 [Example 190] | 783 | 27
33 | CO[C@@H]1CN(C2CCN(C(=O)c3ncnc(NCc4ccc(Cl)c(Cl)c4)c3C)CC2)CC[C@H]1NS(C)(=O)=O [Example 191] | 519 | 20
34 | Cc1c(NCc2ccc(Cl)c(Cl)c2)ncnc1C(=O)N1CCC(N2CCC(N3CCCC3=O)CC2)CC1 [Example 192] | 1450 | 37
35 | CNC(=O)C1CN(C2CCN(C(=O)c3ncnc(NCc4ccc(Cl)c(Cl)c4)c3C)CC2)C1 [Example 193] | 1540 | 35
36 | CC(=O)N(C)C1CCN(C2CCN(C(=O)c3ncnc(NCc4ccc(Cl)c(Cl)c4)c3C)CC2)CC1 [Example 194] | 491 | 25
37 | CCS(=O)(=O)NC1CCN(C2CCN(C(=O)c3ncnc(NCc4ccc(Cl)c(Cl)c4)c3C)CC2)CC1 [Example 195] | 141 | 14
38 | Cc1c(NCc2ccc(C(C)(C)C)cc2)ncnc1C(=O)N1CCC(N2CCC(S(=O)(=O)N(C)C)CC2)CC1 [Example 196] | 666 | 19
39 | Cc1c(NCc2ccc(Cl)c(Cl)c2)ncnc1C(=O)N1CCC(N2CCC(NS(=O)(=O)C(C)C)CC2)CC1 [Example 197] | 33 | 4
40 | CCOC1CCN(C2CCN(C(=O)c3ncnc(NCc4ccc(C(C)(C)C)cc4)c3C)CC2)CC1 [Example 198] | 58 | 1
41 | Cc1c(NCc2ccc(C(C)(C)C)cc2)ncnc1C(=O)N1CCC(N2CCC(CNS(C)(=O)=O)CC2)CC1 [Example 199] | 534 | 9
42 | Cc1c(NCc2ccc(C(C)(C)C)cc2)ncnc1C(=O)N1CCC(N2CCC(C(C)(C)C)CC2)CC1 [Example 200] | 108 | 5
